In US20210255193A1, “LYSINE REACTIVE PROBES AND USES THEREOF” (The Scripps Research Institute, priority 2017, published 2021):
“Also recorded” adds a separate entry of the source.

biological target: T1, SIN3A Paired amphipathic helix protein Sin3a (Homo sapiens, UniProt Q96ST3); assay: competitive isoTOP-ABPP; assay type: binding; details: 50 uM, 231 sol, in vitro
T1 construct: isoTOP-ABPP experiments performed in cell lysates (in vitro); endogenous in cells; host or cells: soluble proteome of human cancer cell lines (MDA-MB-231; Ramos and Jurkat also prepared)
T1 sequence (Q96ST3 1-1273): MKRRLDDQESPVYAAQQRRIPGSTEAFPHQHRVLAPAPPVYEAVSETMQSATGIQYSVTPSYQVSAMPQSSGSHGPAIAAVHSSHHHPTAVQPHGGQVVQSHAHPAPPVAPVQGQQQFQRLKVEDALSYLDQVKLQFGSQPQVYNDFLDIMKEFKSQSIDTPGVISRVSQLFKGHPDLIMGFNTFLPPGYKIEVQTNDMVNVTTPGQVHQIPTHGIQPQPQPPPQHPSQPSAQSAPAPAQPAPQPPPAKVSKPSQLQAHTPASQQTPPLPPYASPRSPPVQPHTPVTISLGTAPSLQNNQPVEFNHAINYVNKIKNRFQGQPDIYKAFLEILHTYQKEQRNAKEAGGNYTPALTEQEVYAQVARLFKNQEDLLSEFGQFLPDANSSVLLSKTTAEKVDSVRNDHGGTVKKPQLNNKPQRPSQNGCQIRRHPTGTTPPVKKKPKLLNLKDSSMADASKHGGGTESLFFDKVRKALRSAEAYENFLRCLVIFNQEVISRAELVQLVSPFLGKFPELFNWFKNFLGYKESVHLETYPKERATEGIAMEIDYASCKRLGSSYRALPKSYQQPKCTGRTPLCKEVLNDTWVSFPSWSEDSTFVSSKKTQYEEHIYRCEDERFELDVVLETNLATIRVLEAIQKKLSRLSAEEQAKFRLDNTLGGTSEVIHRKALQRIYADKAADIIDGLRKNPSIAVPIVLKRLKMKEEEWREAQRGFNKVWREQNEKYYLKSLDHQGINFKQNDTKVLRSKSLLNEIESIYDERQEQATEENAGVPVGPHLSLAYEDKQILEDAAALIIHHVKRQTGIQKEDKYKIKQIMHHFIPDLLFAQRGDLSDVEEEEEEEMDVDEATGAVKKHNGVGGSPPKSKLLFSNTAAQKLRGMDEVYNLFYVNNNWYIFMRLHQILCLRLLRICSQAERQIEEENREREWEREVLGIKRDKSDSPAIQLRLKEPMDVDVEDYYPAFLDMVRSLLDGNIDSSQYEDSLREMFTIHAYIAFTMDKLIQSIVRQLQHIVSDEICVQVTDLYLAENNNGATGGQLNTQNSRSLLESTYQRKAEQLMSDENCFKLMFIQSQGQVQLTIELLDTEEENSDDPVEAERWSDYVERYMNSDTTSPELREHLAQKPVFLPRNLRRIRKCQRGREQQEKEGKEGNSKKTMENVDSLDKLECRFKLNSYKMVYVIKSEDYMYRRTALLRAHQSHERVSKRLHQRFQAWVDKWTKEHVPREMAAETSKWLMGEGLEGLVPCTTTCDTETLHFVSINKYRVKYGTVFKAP
Procedure, shortened: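 Fragments at 50 μM (activated esters) or 100 μM (guanidinylating agents) were incubated with 0.5 ml lysate before probe labeling. After 0.1 mM STP-alkyne for 1 h, samples were clicked to isotopically distinct TEV tags, and R taken as DMSO-over-compound MS1 peak-area ratio.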

SMILES | isoTOP-ABPP reactivity ratio at lysine Q96ST3_K155
O=C(CCc1cn(-c2ccccc2)nc1-c1ccccc1)Oc1ccc([N+](=O)[O-])cc1[N+](=O)[O-] [fragment 29, 2,4-Dinitrophenyl 3-(1,3-diphenyl-1H-pyrazol-4-yl)propanoate] | 1.5
O=C(CCc1coc2cc(F)ccc2c1=O)Oc1c(F)c(F)c(F)c(F)c1F [fragment 26, Pentafluorophenyl 3-(7-fluoro-4-oxo-4H-chromen-3-yl)propanoate] | 1.7
O=C(CN1C(=O)c2ccccc2C1=O)Oc1c(F)c(F)c(F)c(F)c1F [fragment 27, Pentafluorophenyl 2-(1,3-dioxoisoindolin-2-yl)acetate] | 11.7
Cn1cc(CC(=O)Oc2ccc([N+](=O)[O-])cc2[N+](=O)[O-])c2ccccc21 [fragment 32, 2,4-Dinitrophenyl 2-(1-methyl-1H-indol-3-yl)acetate] | 17.5
O=C(Oc1c(F)c(F)c(F)c(F)c1F)C1CCN(C(=O)OCc2ccccc2)CC1 [fragment 24, 1-Benzyl 4-(pentafluorophenyl) piperidine-1,4-dicarboxylate] | 1.1
O=C(Oc1c(F)c(F)c(F)c(F)c1F)c1ccc2ccccc2n1 [fragment 25, Pentafluorophenyl quinoline-2-carboxylate] | 11.1
O=C(Oc1ccc([N+](=O)[O-])cc1[N+](=O)[O-])c1cc(C(F)(F)F)cc(C(F)(F)F)c1 [fragment 31, 2,4-Dinitrophenyl 3,5-bis(trifluoromethyl)benzoate] | 18.6
O=C(Oc1ccc([N+](=O)[O-])cc1[N+](=O)[O-])C(c1ccccc1)c1ccccc1 [fragment 30, 2,4-Dinitrophenyl 2,2-diphenylacetate] | 20.0
COc1cc(CCC(=O)Oc2ccc([N+](=O)[O-])cc2[N+](=O)[O-])cc(OC)c1OC [fragment 33, 2,4-Dinitrophenyl 3-(3,4,5-trimethoxyphenyl)propanoate] | 2.0
CCn1cc(C(=O)Oc2c(F)c(F)c(F)c(F)c2F)c(=O)c2ccc(C)nc21 [fragment 28, Pentafluorophenyl 1-ethyl-7-methyl-4-oxo-1,4-dihydro-1,8-naphthyridine-3-carboxylate] | 4.9

same assay, conditions: 50 uM, in vitro, sol, 231

SMILES | isoTOP-ABPP ratio (R) at liganded lysine Q96ST3_K155
O=C(Oc1ccc([N+](=O)[O-])cc1[N+](=O)[O-])C(c1ccccc1)(c1ccccc1)c1ccccc1 [fragment 42, 2,4-Dinitrophenyl 2,2,2-triphenylacetate] | 0.9
CC(C)(C)OC(=O)NCCCC(=O)Oc1ccc([N+](=O)[O-])cc1[N+](=O)[O-] [fragment 41, 2,4-Dinitrophenyl 4-((tert-butoxycarbonyl)amino)butanoate] | 1.3
O=C(Oc1ccc([N+](=O)[O-])cc1[N+](=O)[O-])C1CCN(C(=O)OCc2ccccc2)CC1 [fragment 34, 1-Benzyl 4-(2,4-dinitrophenyl) piperidine-1,4-dicarboxylate] | 0.8
O=C(CCc1coc2cc(F)ccc2c1=O)Oc1ccc([N+](=O)[O-])cc1[N+](=O)[O-] [fragment 36, 2,4-Dinitrophenyl 3-(7-fluoro-4-oxo-4H-chromen-3-yl)propanoate] | 1.4
O=C(CC12CC3CC(CC(C3)C1)C2)Oc1ccc([N+](=O)[O-])cc1[N+](=O)[O-] [fragment 38, 2,4-Dinitrophenyl 2-(adamantan-1-yl)acetate] | 1.2
O=C(Oc1ccc([N+](=O)[O-])cc1[N+](=O)[O-])c1ccc2ccccc2n1 [fragment 35, 2,4-Dinitrophenyl quinoline-2-carboxylate] | 1.6
O=C(Oc1ccc([N+](=O)[O-])cc1[N+](=O)[O-])c1ccccc1Nc1cccc(C(F)(F)F)c1 [fragment 40, 2,4-Dinitrophenyl 2-((3-(trifluoromethyl)phenyl)amino)benzoate] | 1.1
O=C(Oc1ccc([N+](=O)[O-])cc1[N+](=O)[O-])c1ccc(Oc2ccccc2)cc1 [fragment 39, 2,4-Dinitrophenyl 4-phenoxybenzoate] | 1.0
O=C(Oc1ccc([N+](=O)[O-])cc1[N+](=O)[O-])c1ccc(-c2ccccc2)cc1 [fragment 37, 2,4-Dinitrophenyl [1,1′-biphenyl]-4-carboxylate] | 1.1
CC(=O)Oc1ccc([N+](=O)[O-])cc1[N+](=O)[O-] [fragment 43, 2,4-Dinitrophenyl acetate] | 1.2

same assay, conditions: 50 uM_231_sol_in vitro; possible other lysine Q96ST3_K152

SMILES | isoTOP-ABPP ratio, lysine Q96ST3_K155
O=C(Oc1c(F)c(F)cc(F)c1F)c1cc(C(F)(F)F)cc(C(F)(F)F)c1 [fragment 48, 2,3,5,6-Tetrafluorophenyl 3,5-bis(trifluoromethyl)benzoate] | 20.0
O=C(Oc1c(F)c(F)c(C(F)(F)F)c(F)c1F)c1cc(C(F)(F)F)cc(C(F)(F)F)c1 [fragment 47, 2,3,5,6-Tetrafluoro-4-(trifluoromethyl)phenyl 3,5-bis(trifluoromethyl)benzoate] | 1.8
NC(=O)c1cc(C(F)(F)F)cc(C(F)(F)F)c1 [fragment 51, reference compound] | 1.1
O=C(CCc1ccc2c(c1)OCO2)Oc1ccc([N+](=O)[O-])cc1[N+](=O)[O-] [fragment 45, 2,4-Dinitrophenyl 3-(benzo[d][1,3]dioxol-5-yl)propanoate] | 1.5
N#Cc1ccc(C(=O)Oc2ccc([N+](=O)[O-])cc2[N+](=O)[O-])cc1 [fragment 44, 2,4-Dinitrophenyl 4-cyanobenzoate] | 1.5
O=C(ON1C(=O)CCC1=O)c1cc(C(F)(F)F)cc(C(F)(F)F)c1 [fragment 46, 3,5-Bis(trifluoromethyl)benzoic acid NHS ester] | 4.4

same assay, conditions: 100 uM_231_sol_in vitro; possible other lysine Q96ST3_K152

isoTOP-ABPP ratio, lysine Q96ST3_K155 | SMILES
3.5 | CC(C)(C)OC(=O)N=C(NC(=O)OC(C)(C)C)n1cccn1 [fragment 50, reference compound]

same assay, conditions: Q96ST3_K155; 50 uM, 231 sol, in vitro

R value (DMSO/fragment) for probe 1 labeling | SMILES
1.6 | O=C(CCc1cn(-c2ccccc2)nc1-c1ccccc1)Oc1c(F)c(F)c(F)c(F)c1F [fragment 19, Pentafluorophenyl 3-(1,3-diphenyl-1H-pyrazol-4-yl)propanoate]
20.0 | O=C(Oc1c(F)c(F)c(F)c(F)c1F)c1cc(C(F)(F)F)cc(C(F)(F)F)c1 [fragment 21, Pentafluorophenyl 3,5-bis(trifluoromethyl)benzoate]
4.1 | COc1cc(CCC(=O)Oc2c(F)c(F)c(F)c(F)c2F)cc(OC)c1OC [fragment 23, Pentafluorophenyl 3-(3,4,5-trimethoxyphenyl)propanoate]
3.9 | Cn1cc(CC(=O)Oc2c(F)c(F)c(F)c(F)c2F)c2ccccc21 [fragment 22, Pentafluorophenyl 2-(1-methyl-1H-indol-3-yl)acetate]
1.2 | O=C(Oc1c(F)c(F)c(F)c(F)c1F)C(c1ccccc1)c1ccccc1 [fragment 20, Pentafluorophenyl 2,2-diphenylacetate]

same assay, conditions: SIN3A K155; 21 50 μM

SMILES | engagement of K155, competition of probe 1 labeling
O=C(Oc1c(F)c(F)c(F)c(F)c1F)c1cc(C(F)(F)F)cc(C(F)(F)F)c1 [fragment 21, Pentafluorophenyl 3,5-bis(trifluoromethyl)benzoate] | engages K155 in SIN3A; also recorded: fully competes probe 1 labeling of K155
